Melting point and IC50 data for six molecules are collected here from article PMC10383864, “Novel 2-Sulfanylquinazolin-4(3H)-one Derivatives as Multi-Kinase Inhibitors and Apoptosis Inducers: A Synthesis, Biological Evaluation, and Molecular Docking Study” (Molecules, 2023).

Molecules are shown by their SMILES. Read-outs that look alike come from different tables or passages of the source.

The test system of one series is MDA-MB-231 cells. Briefly: MTT cytotoxicity assay. The series is classed as cell-based, human. To be noted: MDA-MB-231, MTT, 24 h treatment, mean ± SD of three experiments, read-out: In Vitro Cytotoxicity IC50 MDA-MB-231. The protocol: (§1) In addition, the safety profile of the 2-sulfanylquinazolin-4(3H)-one derivatives was evaluated against normal human cells (WI38) […]. The standard MTT (3-(4,5-dimethylthiazol-2-yl)-2,5 diphenyl tetrazolium bromide) colorimetric assay protocol was used, as described by Mosmann. […] The results were expressed as growth inhibitory concentration (IC50) values.
(§2) The cell lines were obtained from ATCC (American Type Culture Collection). […] After incubation, the cells were treated with different concentrations of the synthesized compounds and incubated for 24 h. Afterward, the cells were washed with PBS, and 20 µL of MTT solution at 5 mg/mL was added, all incubated for 4 h. The MTT solution was discarded, and 100 µL of dimethyl sulfoxide (DMSO) was added per well. […] The relative cell viability in percentage was calculated as (A570 of treated cells/A570 of untreated cells) × 100.
For orientation: Tetrazolium dyes change colour on reduction, which living cells bring about.

Another series relates to HepG2 cells. The series is described as follows: MTT cytotoxicity assay. Type of series: cell-based, human. To be noted: 24 h treatment, mean ± SD of three experiments, read-out: In Vitro Cytotoxicity IC50 HepG2. As to the method: as §1, §2
A further series concerns MCF-7 cells. Briefly: MTT cytotoxicity assay. The series is classed as cell-based, human. To be noted: MCF-7, MTT, 24 h treatment, mean ± SD of three experiments, read-out: In Vitro Cytotoxicity IC50 MCF-7. The protocol:
as §1, §2

The next series relates to HeLa cells. The series is described as follows: MTT cytotoxicity assay. The series is classed as cell-based, human. Particulars: 24 h treatment, mean ± SD of three experiments, read-out: In Vitro Cytotoxicity IC50 HeLa. As to the method: as §1, §2
Series [1] in a line: MTT cytotoxicity assay, normal human cell line. To be noted: human, WI38 cells (normal human cells), 24 h treatment, mean ± SD of three experiments, read-out: In Vitro Cytotoxicity IC50 WI38. The series is classed as cell-based. As to the method: as §1, §2
The next series relates to WI38 cells. The series is described as follows: MTT cytotoxicity assay, normal human cell line. The series is classed as cell-based. To be noted: 24 h treatment, mean ± SD of three experiments, read-out: In Vitro Cytotoxicity IC50 WI38. The protocol: as §1, §2
Series [2] concerns HepG2, MCF-7, MDA-231, and HeLa. Briefly: MTT cytotoxicity assay, range over the tested cancer cell lines. To be noted: Homo sapiens, range over HepG2, MCF-7, MDA-231 and HeLa, read-out: IC50 range against all tested cancer cell lines. The series is classed as cell-based. The protocol: as §1, §2

`Cc1ccc(CSc2nc3ccc(F)cc3c(=O)n2-c2ccc(F)cc2)cc1` [Compound 5a, 3-(4-fluoro-Arenyl)-6-fluoro-2-(4-methyl-benzylsulfanyl)-3H-quinazolin-4-one] yielded a melting point of 166 to 168 °C. Besides, the IC50 in the series on MDA-MB-231 cells (Homo sapiens, MDA-MB-231, 24 h) amounted to 79.1 ± 4 µM. For the same molecule, in the series on HepG2 cells (Homo sapiens, HepG2, 24 h), the IC50 was over 100 µM. Further, the half-maximal inhibitory concentration (IC50) in the series on MCF-7 cells (Homo sapiens, MCF7, 24 h) stood at 86 ± 4.4 µM. The IC50 in the series with HeLa cells (Homo sapiens, 24 h) was 83.2 ± 4.1 µM. For the same molecule, the concentration for half-maximal inhibition (IC50) at 24 h in series [1] came to 28.7 ± 2.2 µM.

Take `Cc1ccc(CSc2nc3ccc(F)cc3c(=O)n2-c2ccccc2)cc1` [Compound 5b, 6-Fluoro-2-(4-methyl-benzylsulfanyl)-3-Arenyl-3H-quinazolin-4-one]: the melting point lay in the range of 158 to 160 °C. Moreover, in the series on MDA-MB-231 cells (Homo sapiens, MDA-MB-231, 24 h), the half-maximal inhibitory concentration (IC50) came out at 78.3 ± 3.9 µM. Besides, the half-maximal inhibitory concentration (IC50) with HepG2 cells (Homo sapiens, HepG2, 24 h) is 85 ± 4.6 µM. Besides, the IC50 in the series with MCF-7 cells (Homo sapiens, MCF7, 24 h) came to 91.2 ± 4.8 µM. Also, the IC50 with HeLa cells (Homo sapiens, 24 h) is over 100 µM. The IC50 at 24 h in series [1] is over 100 µM.

`Cc1ccc(-n2c(SCc3ccccc3)nc3ccc(F)cc3c2=O)cc1` [Compound 5c, 2-Benzylsulfanyl-6-fluoro-3-(4-methyl-Arenyl)-3H-quinazolin-4-one] came in with a melting point of 156 to 158 °C. Further, in the series on MDA-MB-231 cells, the IC50 turned out to be 26.9 ± 1.9 µM. In addition, the concentration for half-maximal inhibition (IC50) in the series on HepG2 cells turned out to be 34.3 ± 2.4 µM. In the series with MCF-7 cells, the half-maximal inhibitory concentration (IC50) amounted to 51.9 ± 3.1 µM. In addition, the concentration for half-maximal inhibition (IC50) in the series with HeLa cells was found to be 31.2 ± 2.1 µM. For the same molecule, the IC50 in the series on WI38 cells was 40.9 ± 2.6 µM.

Molecule `Cc1ccc(-n2c(SCc3ccc(F)cc3)nc3ccc(F)cc3c2=O)cc1` [Compound 5e, 2-(4-Fluoro-benzylsulfanyl)-6-fluoro-3-(4-methylArenyl)-3H-quinazolin-4-one] returned a melting point of 170 to 172 °C. Moreover, in the series with MDA-MB-231 cells (Homo sapiens, MDA-MB-231, 24 h), the IC50 came out at 19.2 ± 1.5 µM. The half-inhibitory concentration (IC50) in the series with HepG2 cells (Homo sapiens, HepG2, 24 h) was found to be 29.5 ± 2.2 µM. For the same molecule, the IC50 in the series on MCF-7 cells (Homo sapiens, MCF7, 24 h) was determined as 25.2 ± 1.9 µM. Also, the IC50 in the series with HeLa cells (Homo sapiens, 24 h) was found to be 38.2 ± 2.3 µM. Moreover, in series [1], the IC50 at 24 h worked out at 55.8 ± 3.2 µM. The IC50 in series [2] is 19.2 to 38.2 µM.

For `COc1cccc2c1C(=O)c1c(O)c3c(c(O)c1C2=O)C[C@@](O)(C(=O)CO)C[C@@H]3O[C@H]1C[C@H](N)[C@H](O)[C@H](C)O1` [Dox., doxorubicin, reference compound], in the series with HepG2 cells (Homo sapiens, HepG2, 24 h), the half-maximal inhibitory concentration (IC50) is 4.5 ± 0.2 µM.

For the molecule `CCN(CC)CCNC(=O)c1c(C)[nH]c(/C=C2\C(=O)Nc3ccc(F)cc32)c1C` [Sunitinib, sunitinib, reference compound], the IC50 in the series with MDA-MB-231 cells (Homo sapiens, MDA-MB-231, 24 h) worked out at 19 ± 1.5 µM; in the series with HepG2 cells (Homo sapiens, HepG2, 24 h) it was 11.3 ± 1 µM; in the series on MCF-7 cells (Homo sapiens, MCF7, 24 h), 24.8 ± 1.8 µM; with HeLa cells (Homo sapiens, 24 h), 21.8 ± 1.7 µM. For the same molecule, in series [1], the half-inhibitory concentration (IC50) at 24 h came out at 77.3 ± 4.3 µM.

What is called melting point is the temperature, or range, at which the solid turns liquid. By IC50 is commonly meant the concentration at which inhibition is half-maximal.
